This is an account of results in patent US5684151A, “1-arylsulphonyl, arylcarbonyl and 1-arylphosphonyl-3-phenyl-1,4,5,6-tetrahydropyridazines” (priority 1995, dated 1997).

For the assay, the target named is T1, progestin receptor from rabbit uterus (Oryctolagus cuniculus, UniProt P06186).
T1 construct: Cytosolic progestin receptor were obtained by mixing rabbit uterine tissue with a Tris buffer; from tissue; host or cells: rabbit uterus cytosol
T1 sequence (P06186 whole entry): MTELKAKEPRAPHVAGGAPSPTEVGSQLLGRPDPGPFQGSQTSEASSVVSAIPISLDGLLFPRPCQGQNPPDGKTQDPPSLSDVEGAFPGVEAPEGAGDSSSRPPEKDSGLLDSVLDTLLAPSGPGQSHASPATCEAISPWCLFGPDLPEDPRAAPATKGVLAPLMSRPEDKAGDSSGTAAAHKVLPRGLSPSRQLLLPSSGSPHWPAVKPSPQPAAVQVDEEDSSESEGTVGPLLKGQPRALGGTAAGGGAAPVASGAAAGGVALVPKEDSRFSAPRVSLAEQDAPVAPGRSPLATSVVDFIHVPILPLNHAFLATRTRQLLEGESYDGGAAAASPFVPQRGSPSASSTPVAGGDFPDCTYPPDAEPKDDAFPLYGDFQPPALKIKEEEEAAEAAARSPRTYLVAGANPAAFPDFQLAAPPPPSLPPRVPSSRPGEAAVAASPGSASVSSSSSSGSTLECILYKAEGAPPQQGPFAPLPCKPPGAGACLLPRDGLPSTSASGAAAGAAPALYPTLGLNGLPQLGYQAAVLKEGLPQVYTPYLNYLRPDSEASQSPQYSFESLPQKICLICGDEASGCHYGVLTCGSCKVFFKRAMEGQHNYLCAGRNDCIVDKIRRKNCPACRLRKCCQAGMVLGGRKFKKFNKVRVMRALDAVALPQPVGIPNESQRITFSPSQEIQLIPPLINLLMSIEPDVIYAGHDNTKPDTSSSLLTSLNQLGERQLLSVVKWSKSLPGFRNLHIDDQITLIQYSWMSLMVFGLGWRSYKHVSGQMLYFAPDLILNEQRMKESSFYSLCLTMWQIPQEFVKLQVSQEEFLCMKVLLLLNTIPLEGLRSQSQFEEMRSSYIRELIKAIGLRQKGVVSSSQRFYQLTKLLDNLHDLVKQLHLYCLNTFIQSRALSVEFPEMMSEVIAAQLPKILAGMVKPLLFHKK
Briefly: Progestin receptor binding (3H-R5020 displacement). As to conditions: rabbit uterine cytosol, 4° C., 18 h, read-out: IC50: Binding affinity for the progestin receptor from rabbit uterus. As to the method:
A progestin initiates a biological response by first binding to a progestin receptor. Affinity for progestin receptors was determined by measuring the ability of compounds to displace a progestin radioligand from those receptors in vitro. Cytosolic progestin receptor were obtained by mixing rabbit uterine tissue with a Tris buffer [0.1M Tris-Hcl, 1 mM Na2 EDTA, 1 mM dithiothreotol, 1 mM sodium molybdate, 1% glycerol, pH 7.4]. The tissue/buffer mixture was homogenized under ice-cold conditions. The homogenate was then centrifuged and the supernatant (cytosol preparation) was decanted and stored at -70° C. and thawed prior to use. The competitive binding assay was performed by mixing ^3 H-R5020, a progestin radioligand, with cytosol preparation and various concentrations of test compounds (prepared in DMSO with a final 5% DMSO concentration). This mixture was then incubated at 4° C. for about 18 hours. Non-specific binding was determined using an unlabelled ligand in excess. After the incubation period, the radioligand bound to receptor was separated from free radioligand using dextran-coated charcoal. The amount of bound radioligand was then determined by liquid scintillation counting. The data were expressed as the concentration of test compound that displaced 50% of the radioligand from the receptor (IC50)
Aspects of the application used in this procedure are described in the following: J. L. McGuire et al., Biochemistry 13, 319, 1974.
By IC50 is commonly meant the concentration needed to halve the response being measured. With `O=S(=O)(c1cccc(C(F)(F)F)c1)N1CCCC(c2ccc(Cl)c(Cl)c2)=N1` [Compound 98], the IC50 turned out to be 2.5 nM.

In the case of `O=S(=O)(c1ccc(Cl)cc1)N1CCCC(c2ccc(Br)cc2)=N1` [Compound 99], the IC50 is 21 nM.

As for `O=S(=O)(c1ccc(Br)cc1)N1CCCC(c2ccc(Br)cc2)=N1` [Compound 100], the IC50 was found to be 23 nM.

As for `Cc1ccc(S(=O)(=O)N2CCCC(c3ccc(Br)cc3)=N2)cc1` [Compound 101], the IC50 was 195 nM.

As for `O=S(=O)(c1cc(Cl)ccc1Cl)N1CCCC(c2ccc(Br)cc2)=N1` [Compound 102], the IC50 worked out at 9 nM.

On to `O=S(=O)(c1ccccc1)N1CCCC(c2ccc(Br)cc2)=N1` [Compound 103], for which the IC50 was determined as 149 nM.

Take `O=S(=O)(c1ccc(F)cc1)N1CCCC(c2ccc(Cl)c(Cl)c2)=N1` [Compound 106]: the half-maximal inhibitory concentration (IC50) is 7.11 nM.

As for `O=S(=O)(c1cc(Cl)c(Cl)cc1Cl)N1CCCC(c2ccc(Cl)c(Cl)c2)=N1` [Compound 107], the IC50 amounted to 7.45 nM.

As for `CCCCc1ccc(S(=O)(=O)N2CCCC(c3ccc(Cl)c(Cl)c3)=N2)cc1` [Compound 108], the IC50 came out at 3.35 nM.

As to `O=S(=O)(c1ccc2c(c1)CCCC2)N1CCCC(c2ccc(Cl)c(Cl)c2)=N1` [Compound 114], the 50% inhibitory concentration (IC50) was determined as 6.5 nM.

As to `CCCCc1ccc(S(=O)(=O)N2CCCC(c3ccc(Cl)c(C(F)(F)F)c3)=N2)cc1` [Compound 116], the IC50 stood at 8.77 nM.

Regarding `O=S(=O)(c1ccc(Cl)cc1)N1CCCC(c2ccc3ccccc3c2)=N1` [Compound 117], the IC50 is 4.97 nM.

For the molecule `O=S(=O)(c1cc(Cl)ccc1Cl)N1CCCC(c2ccc3ccccc3c2)=N1` [Compound 118], the IC50 was determined as 5.56 nM.

With `O=S(=O)(c1cc(Cl)ccc1Cl)N1CCCC(c2ccc3c(c2)OCCO3)=N1` [Compound 123], the IC50 worked out at 557 nM.

Take `O=S(=O)(c1cccc(C(F)(F)F)c1)N1CCCC(c2ccc(Cl)c(C(F)(F)F)c2)=N1` [Compound 126]: the IC50 came to 7.14 nM.

As for `O=[N+]([O-])c1cccc(S(=O)(=O)N2CCCC(c3ccc(Cl)c(C(F)(F)F)c3)=N2)c1` [Compound 127], the IC50 was 4.04 nM.

`O=[N+]([O-])c1ccc(S(=O)(=O)N2CCCC(c3ccc(Cl)c(C(F)(F)F)c3)=N2)cc1` [Compound 128]: the IC50 turned out to be 14.2 nM.

Turning to `O=S(=O)(c1ccc(C(F)(F)F)cc1)N1CCCC(c2ccc3ccccc3c2)=N1` [Compound 129], the IC50 amounted to 4.94 nM.

As to `O=S(=O)(c1cccc(C(F)(F)F)c1)N1CCCC(c2ccc3ccccc3c2)=N1` [Compound 130], the 50% inhibitory concentration (IC50) amounted to 2.31 nM.

In the case of `O=S(=O)(c1ccccc1)N1CCCC(c2ccc3ccccc3c2)=N1` [Compound 131], the half-inhibitory concentration (IC50) stood at 17.4 nM.

As for `O=S(=O)(c1ccc2ccccc2c1)N1CCCC(c2ccc3ccccc3c2)=N1` [Compound 132], the IC50 was found to be 7.5 nM.

Regarding `COC(=O)CCCOc1ccc(Br)cc1S(=O)(=O)N1CCCC(c2ccc(Cl)c(Cl)c2)=N1` [Compound 136, 3-(3,4-dichlorophenyl)-1-(2-(3-carbomethoxypropxy)-5-bromobenzenesulphonyl)-1,4,5,6-tetrahydropyridazine], the IC50 worked out at 70 nM.

`CN1C(=O)CSc2cc(C3=NN(S(=O)(=O)c4ccc(I)cc4)CCC3)ccc21` [Compound 138]: the half-inhibitory concentration (IC50) was 341 nM.

On to `CC1CC(c2ccccc2)=NN(S(=O)(=O)c2cccc(C(F)(F)F)c2)C1` (stereo not drawn) [Compound 141], for which the IC50 was found to be 396 nM.

`CC1CC(c2ccccc2)=NN(S(=O)(=O)c2ccc(Br)cc2)C1` (stereo not drawn) [Compound 142]: the concentration for half-maximal inhibition (IC50) worked out at 1620 nM.

As to `Cc1ccc(S(=O)(=O)N2CC(C)CC(c3ccccc3)=N2)cc1` (stereo not drawn) [Compound 143], the half-inhibitory concentration (IC50) came to 1380 nM.

With `O=S(=O)(c1ccc(I)cc1)N1CCCC(c2ccc3c(c2)oc2ccccc23)=N1` [Compound 145, 3-(Dibenzofuran-3-yl)-1-(4-iodobenzenesulfonyl)-1,4,5,6-tetrahydropyradazine], the IC50 was 100 nM.
